This note sets out measurements from ChEMBL document CHEMBL5726294, “Derivatives of 6-(2,3-dichlorophenyl)-1,2,4-triazin-5-amine” (2019).

For assay [1], the target named is T1, Sodium channel protein type 9 subunit alpha (Homo sapiens, UniProt Q15858). The assay is described as follows: (§1) Ex-Vivo Potencies in Inactivated state: The potencies of the compounds provided herein to block specific Na+ channels was measured using automated patch clamp electrophysiologically of Nav1.7 sodium channels (human SCN9A gene) stably expressed in CHO cells using the IonWorks Barracuda system. Currents were measured from the whole cell patch configuration. From a holding potential of −90 mV, membranes were subjected to a 200 ms pre-pulse to −120 mV, then pulsed to 0 mV to measure blockade of the tonic (resting) state. Inactivated state block was elicited by repolarization to −100 mV (20 ms pulse duration), followed by depolarization to 0 mV (20 ms pulse duration). Peak inward Na+ currents were measured in the presence of vehicle or various concentrations of the test compound to determine the percent block of current. It counts as cell-based.

Assay [2] concerns the target T1, Sodium channel protein type 9 subunit alpha. Described as §1, with “in Tonic” for “in Inactivated”. Format: cell-based.

Values joined by “and” are separate entries in the source; they are usually repeats but may differ in a detail not shown here. Equal entries are not always repeated.

T1 sequence (Q15858 whole entry): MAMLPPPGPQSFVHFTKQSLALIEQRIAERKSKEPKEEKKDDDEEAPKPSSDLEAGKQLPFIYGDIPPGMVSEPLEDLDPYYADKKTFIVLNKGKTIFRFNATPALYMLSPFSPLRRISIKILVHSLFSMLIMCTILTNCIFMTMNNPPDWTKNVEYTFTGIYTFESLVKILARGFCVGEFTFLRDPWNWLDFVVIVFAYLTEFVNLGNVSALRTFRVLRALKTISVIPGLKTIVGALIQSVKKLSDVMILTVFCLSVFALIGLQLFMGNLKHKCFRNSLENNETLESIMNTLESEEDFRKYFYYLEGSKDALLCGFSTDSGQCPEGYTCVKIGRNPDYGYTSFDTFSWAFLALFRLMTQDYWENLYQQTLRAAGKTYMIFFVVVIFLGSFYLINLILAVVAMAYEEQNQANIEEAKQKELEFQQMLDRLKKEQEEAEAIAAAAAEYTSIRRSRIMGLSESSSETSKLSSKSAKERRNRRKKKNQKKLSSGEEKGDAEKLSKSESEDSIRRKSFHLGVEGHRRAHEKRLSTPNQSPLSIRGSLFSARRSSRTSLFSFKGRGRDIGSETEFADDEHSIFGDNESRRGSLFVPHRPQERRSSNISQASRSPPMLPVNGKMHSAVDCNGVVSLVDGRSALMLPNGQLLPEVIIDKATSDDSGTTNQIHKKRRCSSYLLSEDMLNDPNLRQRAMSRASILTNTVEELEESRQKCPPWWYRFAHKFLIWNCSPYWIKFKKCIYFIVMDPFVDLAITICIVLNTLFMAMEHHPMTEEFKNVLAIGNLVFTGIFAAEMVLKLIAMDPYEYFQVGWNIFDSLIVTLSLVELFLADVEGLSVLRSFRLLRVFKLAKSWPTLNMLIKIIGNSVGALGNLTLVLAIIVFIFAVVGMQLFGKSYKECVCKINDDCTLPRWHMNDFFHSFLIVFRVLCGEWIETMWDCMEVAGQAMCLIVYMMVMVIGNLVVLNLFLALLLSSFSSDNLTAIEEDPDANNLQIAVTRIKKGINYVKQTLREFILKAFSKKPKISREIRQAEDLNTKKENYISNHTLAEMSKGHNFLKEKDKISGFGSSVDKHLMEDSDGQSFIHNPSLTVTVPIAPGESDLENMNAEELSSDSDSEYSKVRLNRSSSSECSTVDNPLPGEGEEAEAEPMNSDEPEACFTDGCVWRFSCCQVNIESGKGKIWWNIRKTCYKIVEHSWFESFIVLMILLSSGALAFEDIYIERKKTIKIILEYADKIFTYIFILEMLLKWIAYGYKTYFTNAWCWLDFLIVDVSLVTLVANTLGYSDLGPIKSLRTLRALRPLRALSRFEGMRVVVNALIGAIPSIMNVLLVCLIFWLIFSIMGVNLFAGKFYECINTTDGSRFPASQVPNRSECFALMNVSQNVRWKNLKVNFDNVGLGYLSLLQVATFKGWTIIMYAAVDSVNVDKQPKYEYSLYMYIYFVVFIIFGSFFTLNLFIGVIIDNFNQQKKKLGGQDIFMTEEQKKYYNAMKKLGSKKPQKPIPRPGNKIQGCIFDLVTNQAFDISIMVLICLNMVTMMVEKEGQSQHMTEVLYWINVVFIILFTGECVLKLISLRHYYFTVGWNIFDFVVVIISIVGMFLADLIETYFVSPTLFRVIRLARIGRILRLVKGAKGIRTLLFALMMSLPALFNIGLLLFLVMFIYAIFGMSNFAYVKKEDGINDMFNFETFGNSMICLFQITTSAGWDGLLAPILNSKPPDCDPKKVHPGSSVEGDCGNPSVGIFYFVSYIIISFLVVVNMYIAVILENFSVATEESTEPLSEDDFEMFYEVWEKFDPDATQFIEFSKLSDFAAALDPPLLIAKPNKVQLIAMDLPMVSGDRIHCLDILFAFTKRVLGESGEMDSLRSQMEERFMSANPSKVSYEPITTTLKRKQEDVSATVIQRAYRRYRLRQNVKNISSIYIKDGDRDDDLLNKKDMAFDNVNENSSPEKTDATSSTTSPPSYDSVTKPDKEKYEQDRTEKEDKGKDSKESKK

One may read the IC50 as the concentration at which inhibition is half-maximal. In the case of `COCCOCCOCCOc1ccc(-c2nnc(N)nc2N)c(Cl)c1Cl`, the IC50 in assay [1] is above 300 µM.

Take `Nc1nc(N2CCC(O)(C(F)(F)F)CC2)nnc1-c1cccc(Cl)c1Cl`: the IC50 is > 200 µM and 165 µM in assay [2]; 73.9 µM and 59.1 µM in assay [1].

Consider `COCCOCCOCC(C)Nc1nnc(-c2cccc(Cl)c2Cl)c(N)n1` (centres undefined), for which the IC50 is above 200 µM in assay [2] and below 50 µM in assay [1].

For `Nc1nc(N2CC(O)(C(F)(F)F)C2)nnc1-c1cccc(Cl)c1Cl`, the IC50 in assay [2] was above 200 µM; in assay [1], 291 µM and 249 µM.

On to `Nc1nc(N2CCN(C3CCNCC3)CC2)nnc1-c1cccc(Cl)c1Cl`, for which the half-maximal inhibitory concentration (IC50) is above 200 µM in assay [2] and 272 µM in assay [1].

Consider `C[C@@H]1CN(c2nnc(-c3cc(F)cc(Cl)c3Cl)c(N)n2)C[C@H](C)N1`, for which the IC50 in assay [2] was 92.4 µM; in assay [1] it was below 50 µM.

For the compound `Nc1nc(N2CCNCC2)nnc1-c1cc(F)cc(Cl)c1Cl`, the IC50 was above 200 µM in assay [2] and 84.5 µM in assay [1].

As to `COCCOCCOCCN1CCC(Nc2nnc(-c3cc(F)cc(Cl)c3Cl)c(N)n2)CC1`, in assay [2], the IC50 was above 200 µM.

Take `Nc1nc(N2CCN[C@H](CO)C2)nnc1-c1cc(F)cc(Cl)c1Cl`: the IC50 in assay [2] is above 200 µM; in assay [1], 72.6 µM.

Regarding `COCCOCCOCCN1CCN(c2nnc(-c3cccc(Cl)c3Cl)c(N)n2)CC1`, the IC50 in assay [2] is above 200 µM; in assay [1], 54.9 µM and < 50 µM.

With `Nc1nc(N2CC(O)C2)nnc1-c1cccc(Cl)c1Cl`, the IC50 in assay [2] is above 132 µM.

Take `Nc1nc(N2CC(N)C2)nnc1-c1cccc(Cl)c1Cl`: in assay [1], the IC50 was found to be 284 µM.

Regarding `Nc1nc(NCCOCCNCC(=O)O)nnc1-c1cccc(Cl)c1Cl`, the IC50 in assay [1] is above 300 µM.

With `Nc1nc(N2CCN[C@@H](CO)C2)nnc1-c1cc(F)cc(Cl)c1Cl`, the figures for the IC50 in assay [2] and in assay [1] were above 200 µM and 111 µM, respectively.

Take `COCCOCCOCC(=O)N1CCN(c2nnc(-c3cc(F)cc(Cl)c3Cl)c(N)n2)CC1`: the IC50 in assay [2] is above 200 µM; in assay [1], 146 µM and 220 µM.

As to `Nc1nc(N2CCN[C@H](CO)C2)nnc1-c1cccc(Cl)c1Cl`, the IC50 is above 200 µM in assay [2] and 71.8 µM in assay [1].

`COCCOCCOCCN(C)C1CCN(c2nnc(-c3cccc(Cl)c3Cl)c(N)n2)CC1`: the IC50 in assay [2] was 92.5 µM; in assay [1], below 50 µM.

Consider `CC(CO)Nc1nnc(-c2cccc(Cl)c2Cl)c(N)n1` (centres undefined), for which the IC50 in assay [2] was above 200 µM; in assay [1] it was 127 µM.

With `Nc1nc(NC2CCNCC2)nnc1-c1cccc(Cl)c1Cl`, the IC50 in assay [1] was above 300 µM.

For the compound `Nc1nc(N2CCN(CC(O)CO)[C@H](CO)C2)nnc1-c1cccc(Cl)c1Cl` (some centres undefined), the IC50 in assay [2] is above 200 µM; in assay [1], 293 µM and 243 µM.

With `C[C@@H]1CN(c2nnc(-c3cccc(Cl)c3Cl)c(N)n2)C[C@H](C)N1`, the results for the IC50 in assay [2] and in assay [1] were 112 µM and below 50 µM, respectively.

As for `Nc1nc(N2CCN(C3CCOCC3)CC2)nnc1-c1cccc(Cl)c1Cl`, the figures for the IC50 in assay [2] and in assay [1] were 147 µM and below 50 µM, respectively.

Consider `Nc1nc(N2CC(OCC(F)(F)F)C2)nnc1-c1cccc(Cl)c1Cl`, for which the IC50 in assay [1] was above 300 µM.
